Columns and labels:
Assay in all cases: Test B preemergence/postemergence greenhouse plant response rating 0 to 10
barley = type: in vivo, Hordeum vulgare; conditions: for Plant response rating, Barley: 0 to 10 scale
In short: (§1)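 Postemergence treatment of plants two to eighteen cm tall ran alongside preemergence treatment of planted seed, each using compound in a non-phytotoxic solvent.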

barnyardgrass = type: in vivo, Echinochloa crus-galli; conditions: for Plant response rating, Barnyardgrass: 0 to 10 scale
In short: as §1

bedstraw = type: in vivo, Galium aparine; conditions: for Plant response rating, Bedstraw: 0 to 10 scale
In short: as §1

blackgrass = type: in vivo, Alopecurus myosuroides; conditions: for Plant response rating, Blackgrass: 0 to 10 scale
In short: as §1

cheatgrass = type: in vivo, Bromus secalinus; conditions: for Plant response rating, Cheatgrass: 0 to 10 scale
In short: as §1

chickweed = type: in vivo, Stellaria media; conditions: for Plant response rating, Chickweed: 0 to 10 scale
In short: as §1

cocklebur = type: in vivo, Xanthium pensylvanicum; conditions: for Plant response rating, Cocklebur: 0 to 10 scale
In short: as §1

corn = type: in vivo, Zea mays; conditions: for Plant response rating, Corn: 0 to 10 scale
In short: as §1

cotton = type: in vivo, Gossypium hirsutum; conditions: for Plant response rating, Cotton: 0 to 10 scale
In short: as §1

crabgrass = type: in vivo, Digitaria spp.; conditions: for Plant response rating, Crabgrass: 0 to 10 scale
In short: as §1

giant foxtail = type: in vivo, Setaria faberii; conditions: for Plant response rating, Giant foxtail: 0 to 10 scale
In short: as §1

lambsquarters = type: in vivo, Chenopodium album; conditions: for Plant response rating, Lambsquarter: 0 to 10 scale
In short: as §1

morningglory = type: in vivo, Ipomoea hederacea; conditions: for Plant response rating, Morningglory: 0 to 10 scale
In short: as §1

rape = type: in vivo, Brassica napus; conditions: for Plant response rating, Rape: 0 to 10 scale
In short: as §1

rice = type: in vivo, Oryza sativa; conditions: for Plant response rating, Rice: 0 to 10 scale
In short: as §1

sorghum = type: in vivo, Sorghum bicolor; conditions: for Plant response rating, Sorghum: 0 to 10 scale
In short: as §1

soybean = type: in vivo, Glycine max; conditions: for Plant response rating, Soybean: 0 to 10 scale
In short: as §1

sugar beet = type: in vivo, Beta vulgaris; conditions: for Plant response rating, Sugar beet: 0 to 10 scale
In short: as §1

velvetleaf = type: in vivo, Abutilon theophrasti; conditions: for Plant response rating, Velvetleaf: 0 to 10 scale
In short: as §1

wheat = type: in vivo, Triticum aestivum; conditions: for Plant response rating, Wheat: 0 to 10 scale
In short: as §1

wild buckwheat = type: in vivo, Polygonum convolvulus; conditions: for Plant response rating, Wild buckwheat: 0 to 10 scale
In short: as §1

wild oat = type: in vivo, Avena fatua; conditions: for Plant response rating, Wild oat: 0 to 10 scale
In short: as §1

purple nutsedge = type: in vivo, Cyperus rotundus; conditions: for Plant response rating, Nutsedge: 0 to 10 scale
In short: as §1

`CON=C(C)c1cc(-c2nn3c(c2Cl)CCCC3)c(F)cc1Cl` [Compound 82] was tested, and the “Plant response rating, Barley” value (barley; POSTEMERGENCE, Rate 50 g/ha) was 2, the “Plant response rating, Barley” value (barley; PREEMERGENCE, Rate 50 g/ha) was 0 and the “Plant response rating (0 to 10 scale), Barley” value (barley; PREEMERGENCE, Rate 200 g/ha) was 0. For the same compound, the “Plant response rating, Barley” value (barley; Rate 200 g/ha, POSTEMERGENCE) was 3, the “Plant response rating, Barnyardgrass” value (barnyardgrass; POSTEMERGENCE, Rate 50 g/ha) was 6 and the “Plant response rating, Barnyardgrass” value (barnyardgrass; PREEMERGENCE, Rate 50 g/ha) was 2. For the same compound, the “Plant response rating (0 to 10 scale), Barnyardgrass” value (barnyardgrass; PREEMERGENCE, Rate 200 g/ha) was 6, the “Plant response rating, Barnyardgrass” value (barnyardgrass; Rate 200 g/ha, POSTEMERGENCE) was 7 and the “Plant response rating, Bedstraw” value (bedstraw; POSTEMERGENCE, Rate 50 g/ha) was 8. The “Plant response rating, Bedstraw” value (bedstraw; PREEMERGENCE, Rate 50 g/ha) was 0, the “Plant response rating (0 to 10 scale), Bedstraw” value (bedstraw; PREEMERGENCE, Rate 200 g/ha) was 9 and the “Plant response rating, Bedstraw” value (bedstraw; Rate 200 g/ha, POSTEMERGENCE) was 9. The “Plant response rating, Blackgrass” value (blackgrass; POSTEMERGENCE, Rate 50 g/ha) was 2, the “Plant response rating, Blackgrass” value (blackgrass; PREEMERGENCE, Rate 50 g/ha) was 0 and the “Plant response rating (0 to 10 scale), Blackgrass” value (blackgrass; PREEMERGENCE, Rate 200 g/ha) was 4. For the same compound, the “Plant response rating, Blackgrass” value (blackgrass; Rate 200 g/ha, POSTEMERGENCE) was 3, the “Plant response rating, Cheatgrass” value (cheatgrass; POSTEMERGENCE, Rate 50 g/ha) was 2 and the “Plant response rating, Cheatgrass” value (cheatgrass; PREEMERGENCE, Rate 50 g/ha) was 2. The “Plant response rating (0 to 10 scale), Cheatgrass” value (cheatgrass; PREEMERGENCE, Rate 200 g/ha) was 6, the “Plant response rating, Cheatgrass” value (cheatgrass; Rate 200 g/ha, POSTEMERGENCE) was 3 and the “Plant response rating, Chickweed” value (chickweed; POSTEMERGENCE, Rate 50 g/ha) was 2. The “Plant response rating, Chickweed” value (chickweed; PREEMERGENCE, Rate 50 g/ha) was 6, the “Plant response rating (0 to 10 scale), Chickweed” value (chickweed; PREEMERGENCE, Rate 200 g/ha) was 0 and the “Plant response rating, Chickweed” value (chickweed; Rate 200 g/ha, POSTEMERGENCE) was 3. For the same compound, the “Plant response rating, Cocklebur” value (cocklebur; POSTEMERGENCE, Rate 50 g/ha) was 7, the “Plant response rating, Cocklebur” value (cocklebur; PREEMERGENCE, Rate 50 g/ha) was 0 and the “Plant response rating (0 to 10 scale), Cocklebur” value (cocklebur; PREEMERGENCE, Rate 200 g/ha) was 0. The “Plant response rating, Cocklebur” value (cocklebur; Rate 200 g/ha, POSTEMERGENCE) was 8, the “Plant response rating, Corn” value (corn; POSTEMERGENCE, Rate 50 g/ha) was 3 and the “Plant response rating, Corn” value (corn; PREEMERGENCE, Rate 50 g/ha) was 0. The “Plant response rating (0 to 10 scale), Corn” value (corn; PREEMERGENCE, Rate 200 g/ha) was 3, the “Plant response rating, Corn” value (corn; Rate 200 g/ha, POSTEMERGENCE) was 4 and the “Plant response rating, Cotton” value (cotton; POSTEMERGENCE, Rate 50 g/ha) was 10. For the same compound, the “Plant response rating, Cotton” value (cotton; PREEMERGENCE, Rate 50 g/ha) was 0, the “Plant response rating (0 to 10 scale), Cotton” value (cotton; PREEMERGENCE, Rate 200 g/ha) was 1 and the “Plant response rating, Cotton” value (cotton; Rate 200 g/ha, POSTEMERGENCE) was 10. The “Plant response rating, Crabgrass” value (crabgrass; POSTEMERGENCE, Rate 50 g/ha) was 3, the “Plant response rating, Crabgrass” value (crabgrass; PREEMERGENCE, Rate 50 g/ha) was 3 and the “Plant response rating (0 to 10 scale), Crabgrass” value (crabgrass; PREEMERGENCE, Rate 200 g/ha) was 7. The “Plant response rating, Crabgrass” value (crabgrass; Rate 200 g/ha, POSTEMERGENCE) was 4, the “Plant response rating, Giant foxtail” value (giant foxtail; POSTEMERGENCE, Rate 50 g/ha) was 4 and the “Plant response rating, Giant foxtail” value (giant foxtail; PREEMERGENCE, Rate 50 g/ha) was 3. The “Plant response rating (0 to 10 scale), Giant foxtail” value (giant foxtail; PREEMERGENCE, Rate 200 g/ha) was 6, the “Plant response rating, Giant foxtail” value (giant foxtail; Rate 200 g/ha, POSTEMERGENCE) was 5 and the “Plant response rating, Lambsquarter” value (lambsquarters; POSTEMERGENCE, Rate 50 g/ha) was 7. For the same compound, the “Plant response rating, Lambsquarter” value (lambsquarters; PREEMERGENCE, Rate 50 g/ha) was 10, the “Plant response rating (0 to 10 scale), Lambsquarter” value (lambsquarters; PREEMERGENCE, Rate 200 g/ha) was 10 and the “Plant response rating, Lambsquarter” value (lambsquarters; Rate 200 g/ha, POSTEMERGENCE) was 9. The “Plant response rating, Morningglory” value (morningglory; POSTEMERGENCE, Rate 50 g/ha) was 10, the “Plant response rating, Morningglory” value (morningglory; PREEMERGENCE, Rate 50 g/ha) was 0 and the “Plant response rating (0 to 10 scale), Morningglory” value (morningglory; PREEMERGENCE, Rate 200 g/ha) was 2. For the same compound, the “Plant response rating, Morningglory” value (morningglory; Rate 200 g/ha, POSTEMERGENCE) was 10, the “Plant response rating, Rape” value (rape; POSTEMERGENCE, Rate 50 g/ha) was 5 and the “Plant response rating, Rape” value (rape; PREEMERGENCE, Rate 50 g/ha) was 0. For the same compound, the “Plant response rating (0 to 10 scale), Rape” value (rape; PREEMERGENCE, Rate 200 g/ha) was 6, the “Plant response rating, Rape” value (rape; Rate 200 g/ha, POSTEMERGENCE) was 7 and the “Plant response rating, Rice” value (rice; POSTEMERGENCE, Rate 50 g/ha) was 4. The “Plant response rating, Rice” value (rice; PREEMERGENCE, Rate 50 g/ha) was 0, the “Plant response rating (0 to 10 scale), Rice” value (rice; PREEMERGENCE, Rate 200 g/ha) was 2 and the “Plant response rating, Rice” value (rice; Rate 200 g/ha, POSTEMERGENCE) was 6. For the same compound, the “Plant response rating, Sorghum” value (sorghum; POSTEMERGENCE, Rate 50 g/ha) was 2, the “Plant response rating, Sorghum” value (sorghum; PREEMERGENCE, Rate 50 g/ha) was 0 and the “Plant response rating (0 to 10 scale), Sorghum” value (sorghum; PREEMERGENCE, Rate 200 g/ha) was 2. The “Plant response rating, Sorghum” value (sorghum; Rate 200 g/ha, POSTEMERGENCE) was 4, the “Plant response rating, Soybean” value (soybean; POSTEMERGENCE, Rate 50 g/ha) was 4 and the “Plant response rating, Soybean” value (soybean; PREEMERGENCE, Rate 50 g/ha) was 0. The “Plant response rating (0 to 10 scale), Soybean” value (soybean; PREEMERGENCE, Rate 200 g/ha) was 6, the “Plant response rating, Soybean” value (soybean; Rate 200 g/ha, POSTEMERGENCE) was 6 and the “Plant response rating, Sugar beet” value (sugar beet; POSTEMERGENCE, Rate 50 g/ha) was 10. The “Plant response rating, Sugar beet” value (sugar beet; PREEMERGENCE, Rate 50 g/ha) was 8, the “Plant response rating (0 to 10 scale), Sugar beet” value (sugar beet; PREEMERGENCE, Rate 200 g/ha) was 10 and the “Plant response rating, Sugar beet” value (sugar beet; Rate 200 g/ha, POSTEMERGENCE) was 10. The “Plant response rating, Velvetleaf” value (velvetleaf; POSTEMERGENCE, Rate 50 g/ha) was 10, the “Plant response rating, Velvetleaf” value (velvetleaf; PREEMERGENCE, Rate 50 g/ha) was 0 and the “Plant response rating (0 to 10 scale), Velvetleaf” value (velvetleaf; PREEMERGENCE, Rate 200 g/ha) was 10. The “Plant response rating, Velvetleaf” value (velvetleaf; Rate 200 g/ha, POSTEMERGENCE) was 10, the “Plant response rating, Wheat” value (wheat; POSTEMERGENCE, Rate 50 g/ha) was 3 and the “Plant response rating, Wheat” value (wheat; PREEMERGENCE, Rate 50 g/ha) was 0. For the same compound, the “Plant response rating (0 to 10 scale), Wheat” value (wheat; PREEMERGENCE, Rate 200 g/ha) was 2, the “Plant response rating, Wheat” value (wheat; Rate 200 g/ha, POSTEMERGENCE) was 4 and the “Plant response rating, Wild buckwheat” value (wild buckwheat; POSTEMERGENCE, Rate 50 g/ha) was 10. For the same compound, the “Plant response rating, Wild buckwheat” value (wild buckwheat; PREEMERGENCE, Rate 50 g/ha) was 7, the “Plant response rating (0 to 10 scale), Wild buckwheat” value (wild buckwheat; PREEMERGENCE, Rate 200 g/ha) was 9 and the “Plant response rating, Wild buckwheat” value (wild buckwheat; Rate 200 g/ha, POSTEMERGENCE) was 10. For the same compound, the “Plant response rating, Wild oat” value (wild oat; POSTEMERGENCE, Rate 50 g/ha) was 2, the “Plant response rating, Wild oat” value (wild oat; PREEMERGENCE, Rate 50 g/ha) was 2 and the “Plant response rating (0 to 10 scale), Wild oat” value (wild oat; PREEMERGENCE, Rate 200 g/ha) was 7. The “Plant response rating, Wild oat” value (wild oat; Rate 200 g/ha, POSTEMERGENCE) was 4, the “Plant response rating, Nutsedge” value (purple nutsedge; POSTEMERGENCE, Rate 50 g/ha) was 2 and the “Plant response rating, Nutsedge” value (purple nutsedge; PREEMERGENCE, Rate 50 g/ha) was 0. For the same compound, the “Plant response rating (0 to 10 scale), Nutsedge” value (purple nutsedge; PREEMERGENCE, Rate 200 g/ha) was 0 and the “Plant response rating, Nutsedge” value (purple nutsedge; Rate 200 g/ha, POSTEMERGENCE) was 2.

Reference: US6358885B1, “Substituted phenylheterocyclic herbicides” (Mississippi State University, priority 1992, dated 2002)
